Measured values reported in patent US20040267017A1, “3-pyridyl or 4-isoquinolinyl thiazoles as c17, 20 lyase inhibitors” (priority 2001, published 2004).
pIC50: −log10 of the molar value. Read-outs that look alike come from different tables or passages of the source.

What was measured:
powdery mildew = assay: Test against powdery mildew
[1] = target: T1, Recombinant human C17,20 lyase (hLyase) (Homo sapiens, UniProt P05093); assay: Human C17,20 lyase biochemical assay (DHEA formation, RIA/SPA)
T1 construct: made in house; host or cells: Sf9 insect cells (baculovirus); hLyase-enriched microsomes
T1 sequence (P05093 1-508): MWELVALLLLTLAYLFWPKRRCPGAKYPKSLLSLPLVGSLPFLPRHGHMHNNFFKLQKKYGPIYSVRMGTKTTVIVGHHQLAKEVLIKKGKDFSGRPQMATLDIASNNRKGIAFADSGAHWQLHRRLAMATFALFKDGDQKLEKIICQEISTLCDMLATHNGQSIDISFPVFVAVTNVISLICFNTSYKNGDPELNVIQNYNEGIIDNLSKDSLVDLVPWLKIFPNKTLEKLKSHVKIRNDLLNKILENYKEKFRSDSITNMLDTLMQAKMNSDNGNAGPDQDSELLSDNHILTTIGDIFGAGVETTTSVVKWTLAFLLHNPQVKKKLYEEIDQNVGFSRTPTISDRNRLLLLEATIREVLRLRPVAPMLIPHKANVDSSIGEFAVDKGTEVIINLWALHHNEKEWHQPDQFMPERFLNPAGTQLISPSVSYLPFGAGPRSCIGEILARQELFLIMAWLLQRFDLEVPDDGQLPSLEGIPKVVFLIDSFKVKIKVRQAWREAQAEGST
Protocol: (§1) Recombinant human C17,20 lyase (hLyase) was expressed in (Sf9) cells, and hLyase enriched microsomes were prepared from cultures as described in the following reference: Baculovirus Expression of Bovine P450 in Sf9 Cells and Comparison with Expression in Yeast, Mammalian Cells, and E. Coli. Barnes H. J.; Jenkins, C. M.; Waterman, M. R., Archives of Biochemistry and Biophysics (1994) 315(2)489-494. Recombinant murine C17,20 lyase (mLyase) was prepared in a similar manner. hLyase and mLyase preparations were titrated using assay conditions to determine protein concentrations to be used for assays. Both mLyase and hLyase assays were run in an identical manner except that cytochrome b5 was omitted in the murine assays.
Test compounds were diluted […], serially in six steps, with 100% DMSO starting from 800 μM going to 51.2 nM reserving the first 2 columns for the generation of a standard curve. Each of these compound solutions in 100% DMSO was further diluted twenty fold in H2O to obtain compound concentrations ranging from 40 μM to 2.56 nM in 5% DMSO. […]
(§2) Enzymatic reactions were allowed to run for 2 h at rt with gentle agitation. […] The concentration of DHEA generated by hLyase was determined by radioimmunoassay (RIA) as described below.
(§3) 0.08 μCi ^3H-DHEA (1.6 μCi/mL) (NEN (NET814)) in scintillation proximity assay (SPA) buffer (100 mM Tris-HCl, pH 7.5, 50 mM NaCl, 0.5% BSA (Sigma A9647), 0.2% Tween 20) was added to each well. […] Mixtures were allowed to equilibrate with gentle agitation for 1 h followed by an overnight equilibration with no agitation. ^3H-DHEA bound to the SPA beads was determined by scintillation counting.
The concentration of DHEA generated in each reaction was calculated from raw data (CPM) and the standard curve. The lyase inhibitory activity of each compound was determined as the concentration of DHEA generated in the presence of test compounds, expressed as a percent inhibition compared to the DHEA concentration generated in the absence of test compounds (1−(nM DHEA formed in the presence of test compound/nM DHEA formed in the absence of test compounds)×100).

[2] = target: T2, Recombinant murine C17,20 lyase (mLyase) (Mus musculus, UniProt P27786); assay: Murine C17,20 lyase biochemical assay (DHEA formation, RIA/SPA, cytochrome b5 omitted); settings: Table V
T2 construct: made in house; host or cells: Sf9 insect cells (baculovirus), by analogy ('in a similar manner'); enriched microsomes
T2 sequence (P27786 1-507): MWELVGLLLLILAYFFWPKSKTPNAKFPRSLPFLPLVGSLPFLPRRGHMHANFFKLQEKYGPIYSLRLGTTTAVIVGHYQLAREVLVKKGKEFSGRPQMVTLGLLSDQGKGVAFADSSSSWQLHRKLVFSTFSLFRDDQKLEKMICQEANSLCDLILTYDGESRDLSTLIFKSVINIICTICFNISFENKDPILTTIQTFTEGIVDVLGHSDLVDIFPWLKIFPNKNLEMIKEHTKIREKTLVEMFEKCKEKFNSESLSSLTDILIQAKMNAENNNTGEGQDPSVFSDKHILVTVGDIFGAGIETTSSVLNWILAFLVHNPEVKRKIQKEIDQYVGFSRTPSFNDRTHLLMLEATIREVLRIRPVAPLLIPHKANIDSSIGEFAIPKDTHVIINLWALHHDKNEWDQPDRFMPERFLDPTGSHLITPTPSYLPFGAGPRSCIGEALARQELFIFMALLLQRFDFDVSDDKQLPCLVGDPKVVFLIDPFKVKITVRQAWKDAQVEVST
Protocol: as §1, with “Both mLyase and hLyase assays were run in an identical manner except that cytochrome b5 was omitted in the murine assays.” left out
as §2, §3
The concentration of DHEA generated in each reaction was calculated from raw data (CPM) and the standard curve. […]

[3] = read-out: inhibitory IC50 against C17,20 human lyase

Compound	melting point [°C]	pIC50 [1, 3]	pIC50 [2]	also measured
Clc1ccc(-c2csc(-c3cccnc3)n2)c(Cl)c1 [2-(3-pyridyl)-4-(2,4-dichlorophenyl)thiazole, reference compound]		6.39	5.85	% Inhibition against Powdery Mildew (powdery mildew; *Statistically insignificant): 80%
Cc1ccncc1-c1nc(-c2ccc(Cl)cc2Cl)cs1 [2-[4-methyl-3-pyridyl)-4-(2,4-dichlorophenyl)thiazole]		7.82	7.40	% Inhibition against Powdery Mildew (powdery mildew; *Statistically insignificant; listed as 2-[4-methyl-3-pyridyl)-4-(2,4dichlorophenyl)thiazole): devoid of activity; % Inhibition against Powdery Mildew (powdery mildew; *Statistically insignificant, listed as drawing 261): 10%*; pIC50 ([1]; Table V, read-out: Human Lyase IC50): 7.82
Cc1sc(-c2cccnc2)nc1Nc1ccccc1 [Example 6]	110			

The next lines start with results.

melting point [°C]	Compound	pIC50 [1, 3]	pIC50 [2]	also measured
176.5 to 183.5	Cl.Clc1ccc(-c2csc(-c3cnccc3Cl)n2)cc1			
165.5 to 170	Cc1ccncc1-c1nc(Cc2ccc(Cl)cc2)cs1.Cl			
